Tested on: Stratum Corneum
Assay: Dermometer, mechanical measurement of the plasticizing effect (elastic modulus of Stratum Corneum)
Settings: for plasticizing effect on the stratum corneum (in words) / ranking of plasticizing effect among tested compounds: 3% aqueous solution, 30° C., 75% RH; for Relative variation in the elastic modulus of Stratum Corneum, 2H / Relative variation in the elastic modulus of Stratum Corneum, 20H: 30° C. and 75% relative humidity, products tested at 3% in water (controls in water), mean ± standard deviation, 10 samples; for Relative variation in the elastic modulus of Stratum Corneum, 2H: 2 h after application; for Relative variation in the elastic modulus of Stratum Corneum, 20H: 20 h after application
Experimental: A test was performed to evaluate the moisturizing potential of the compounds of the invention which are formulated in a 3% aqueous solution.
Dermometer, mechanical measurement of the plasticizing effect (described by J de Rigal, J-L. Leveque, International Journal of Cosmetic Science, 1982, 247-260).
The tests carried out were performed under the standard conditions on stratum corneum in a chamber at controlled temperature and humidity (T=30° C. and RH=75%). The elastic modulus measurements are performed on each control test specimen and then 2 hours and 20 hours after application of the treatment. The relative variation in the modulus makes it possible to assess the plasticizing effect of the active agent on the Stratum Corneum.
The mean and the standard deviation were calculated on 10 stratum corneum samples.

SMILES	plasticizing effect on the stratum corneum (in words)	ranking of plasticizing effect among tested compounds	Relative variation in the elastic modulus of Stratum Corneum, 2H	Relative variation in the elastic modulus of Stratum Corneum, 20H
CCN(CCO)C(=O)[C@H](O)[C@H](O)CO [Compound 15, (2R,3R)—N-ethyl-2,3,4-trihydroxy-N-(2-hydroxyethyl)butanamide]	significant plasticizing effect	most effective	-28 +/− 10%	−48 +/− 12%
O=C([C@H](O)[C@H](O)CO)N(CCO)CCO [Compound 14, (2R,3R)-2,3,4-trihydroxy-N,N-bis(2-hydroxyethyl)butanamide]	significant plasticizing effect	most effective	−23 +/− 18%	−49 +/− 14%
O=C(NCCO)[C@H](O)[C@H](O)CO [Compound 9, (2R,3R)-2,3,4-trihydroxy-N-(2-hydroxyethyl)butanamide]	significant plasticizing effect		−26 +/− 14%	−27 +/− 16%
C[Si](C)(C)CNC(=O)[C@H](O)[C@H](O)CO [Compound 5, (2R,3R)-2,3,4-trihydroxy-N-[(trimethylsilyl)methyl]butanamide]	significant plasticizing effect		−34 +/− 15%	−31 +/− 18%
OCC(O)CO [Glycerol, reference compound]			−41 ± 12%	−51 ± 15%
NC(N)=O [Urea, reference compound]			−72 ± 9%	−83 ± 7%
NC(=O)[C@H](O)[C@H](O)CO [Compound 3, (2R,3R)-2,3,4-Trihydroxybutanamide]	significant plasticizing effect		−32 +/− 18%	−34 +/− 15%

Source: US8709457B2, “Hydroxylated amide skin moisturizer” (L'Oreal, priority 2006, dated 2014)
